What was measured:
[1] = system: peripheral blood mononuclear cells (PBMC), T cells; assay: ELISpot assay, IL-5 release (SFC) after stimulation with a-synuclein epitope pools; type: cell-based, human
Experimental: (§1) Blood from age matched controls and PD patients were obtained and mononuclear cells were isolated by gradient centrifugation.
(§2) Release of the cytokines gamma-interferon, which measures activation of CD4+ and/or CD8+ T cells, and the interleukin, IL-5, which measures activation of CD4+ T cells was measured by ELISpot assay. […] After 22 hours of stimulation at 37 C, the cells were removed and release of cytokines was measured by colorimetric detection of spot-forming cells (SFC). Confirmed release of cytokine is determined by the presence of a minimum of 20 SFC per million cells.
(§3) The binding algorithms in SubAim 1 predict how well the peptides would bind to MHC if present, but not if they are present in patients. To determine this, the presence of T cell response against the candidate antigens by patient blood-derived peripheral blood mononuclear cells (PBMC) is assessed by ELISPOT assays upon stimulation with the peptides. This assay detects and quantifies cytokine release (in this case, IFNγ and IL-5) from specific activated T cells.
(§4) Data were obtained from blood samples (25 ml) from 44 PD patients and 24 age-matched controls. The experiments were conducted blindly. PBMCs from these samples were isolated and exposed to pools comprising the 122 candidate class I and class II antigens and phosphorylated S129 epitopes generated in Subaim 1. For the PBMCs responsive to the pooled peptides, the response was then deconvoluted to identify individual epitopes.
(§5) PMBC fractions are recovered by standard methods with Ficoll gradient and T cells expansion (Oseroff et al., 2010). The methods for the analysis of T cell reactions and measurement of cytokines production using the enzyme-linked immunosorbent spot (ELISPOT) assay are published in analogous experiments to discover antigens in multiple sclerosis (Lolli et al., 2013) and in hay fever allergens (Oseroff et al., 2010). T cell responses are determined by measuring IFNγ and IL-5 release by ELISPOT. Statistical analysis of differences between populations is expected to be non-parametric and analyzed with the U-Mann-Whitney test. If there were a normal distribution of response, which is a priori unlikely as some patients have no T cell response, with an SD=1, 8 patients per group would be required to provide a p>90% that the study detect a >2 fold difference at a two-sided 0.05 significance level.

[2] = system: peripheral blood mononuclear cells (PBMC), T cells; assay: ELISpot assay, gamma-interferon release (SFC) after stimulation with a-synuclein epitope pools; type: cell-based, human; conditions: for Pool +: IFNg, Pool Stimulated, number of donors with a positive response, Donors tested 1
Experimental: as §1, §2, §3, §4, §5

[3] = Patients Summary, PD patients, of donors tested (peptide)
[4] = Patients Summary, PD patients, single peptide
[5] = number of donors positive to the single peptide, second 'Pool Stimulated' section (from r296), 12 donors tested
[6] = peptide + / donors tested (peptide), second 'Pool Stimulated' section (from r296), 12 donors tested
[7] = single peptide, second 'Pool Stimulated' section (from r296), 12 donors tested
[8] = Patients Summary, Phospho pool peptides
[9] = Patients Summary, Phospho pool peptides, 10 donors tested
[10] = peptides of pool 'Poshpho', 8 donors tested
[11] = peptides of pool 'Poshpho', 8 donors tested, number of donors positive

Row | Substance | IL-g Peptide + (donors positive to the peptide) [1, 3] | IL-g Avg SFC [1, 4] | IL-g Response Frequency [1, 4] | IL-g Total SFC [1, 4] | IL-g Peptide + [1, 5] | IL-g Response Frequency [1, 6] | IL-g Total SFC [1, 7] | Pool + [2] | IFNg Peptide + (donors positive to the peptide) [2, 3] | IFNg Avg SFC [2, 4] | IFNg Response Frequency [2, 4] | IFNg Total SFC [2, 4] | IFNg Peptide + [2, 5] | IFNg Response Frequency [2, 6] | IFNg Total SFC [2, 7] | further results
1 | 3521.0076 (PGKTKEGVLYVGSKT; listed as Homo sapiens) | 1 | 89 SFC | 13% | 89 SFC | 1 | 50% | 120 SFC | 1 | 2 | 40 SFC | 25% | 80 SFC | 1 | 50% | 300 SFC | IL-g Avg SFC [1, 7]: 120 SFC; IFNg Avg SFC [2, 7]: 300 SFC
2 | 3521.0006 (VLYVGSKTK; listed as Homo sapiens) | 2 | 84 SFC | 33% | 168 SFC | – | – | – | 0 | 5 | 304 SFC | 83% | 1519 SFC | – | – | – | –
3 | 3521.0062 (KTKKGVVHG; listed as Homo sapiens) | 1 | 40 SFC | 17% | 40 SFC | – | – | – | 0 | 1 | 113 SFC | 17% | 113 SFC | – | – | – | –
4 | 3521.0002 (PSEEGYQDY; listed as Homo sapiens) | 0 | – | 0% | 0 SFC | 0 | 0% | 0 SFC | 0 | 0 | – | 0% | 0 SFC | 0 | 0% | – | IL-g Response Frequency [1, 8]: 0%; IL-g Total SFC [1, 8]: 0 SFC; IL-g Peptide + (donors positive to the peptide) [1, 9]: 0; IL-g Response Frequency [1, 10]: 0%; IL-g Total SFC [1, 10]: 0 SFC; IL-g Peptide + [1, 11]: 0; Pool + ([2]; pool 'Phospho' (phosphorylated peptides)): 0; IFNg Avg SFC [2, 8]: 460 SFC; IFNg Response Frequency [2, 8]: 10%; IFNg Total SFC [2, 8]: 460 SFC; IFNg Peptide + (donors positive to the peptide) [2, 9]: 1; IFNg Response Frequency [2, 10]: 0%; IFNg Total SFC [2, 10]: 0 SFC; IFNg Peptide + [2, 11]: 0
5 | 3521.0042 (AGKTKEGVLY; listed as Homo sapiens) | 0 | – | 0% | 0 SFC | 0 | 0% | 0 SFC | 0 | 1 | 31 SFC | 13% | 31 SFC | 0 | 0% | 0 SFC | –
6 | 3521.0029 (NVGGAVVTGV; listed as Homo sapiens) | 0 | – | 0% | 0 SFC | 0 | 0% | 0 SFC | 0 | 0 | – | 0% | 0 SFC | 0 | 0% | 0 SFC | –
7 | 3521.0061 (AATGFVKKDQ; listed as Homo sapiens) | 0 | – | 0% | 0 SFC | 1 | 50% | 195 SFC | 0 | 0 | – | 0% | 0 SFC | 1 | 50% | 84 SFC | IL-g Avg SFC [1, 7]: 195 SFC; IFNg Avg SFC [2, 7]: 84 SFC
8 | 3521.0065 (FVKKDQLGK; listed as Homo sapiens) | 0 | – | 0% | 0 SFC | 0 | 0% | 0 SFC | 0 | 0 | – | 0% | 0 SFC | 0 | 0% | 0 SFC | –
9 | 3521.0078 (YVGSKTKKGVVHGVA; listed as Homo sapiens) | 1 | 93 SFC | 17% | 93 SFC | – | – | – | 0 | 1 | 474 SFC | 17% | 474 SFC | – | – | – | –
10 | 3521.0007 (AAATGFVKK; listed as Homo sapiens) | 0 | – | 0% | 0 SFC | 0 | 0% | 0 SFC | 0 | 0 | – | 0% | 0 SFC | 0 | 0% | 0 SFC | –
11 | 3521.0063 (GVVHGVTTV; listed as Homo sapiens) | 0 | – | 0% | 0 SFC | 0 | 0% | 0 SFC | 1 | 1 | 143 SFC | 50% | 143 SFC | 0 | 0% | 0 SFC | –
